According to patent US20090325964A1, “Piperazine Metabotropic Glutamate Receptor 5 (MGLUR5) Negative Allosteric Modulators For Anxiety/Depression” (Wyeth, priority 2008, published 2009):
Like-named read-outs stand apart in the source and are kept apart here.

Biological target: T1, rat mGluR5 receptor (Rattus norvegicus, UniProt P31424)
T1 construct: expressed in transfected cells; host or cells: HEK-293
Experiment: [3H]-MPEP displacement binding assay, HEK-293 cell membranes expressing rat mGluR5
Conditions: for inhibition at 10 µM: read-out: PCT INHIB (%) @ 10 μM; for Ki: read-out: Median Ki
Summary of the method: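 Membranes from HEK-293 cells expressing rat mGluR5 (12-25 μg protein), incubated 60 min at room temperature with 4 nM [3H]-MPEP in 50 mM Tris pH 7.5, then filtered. Nonspecific binding defined with 10 μM MPEP.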

[1] = @ 10 μM compound, Biological Activity, Table 2A
[2] = single point, @ 10 μM compound, Table 3A
[3] = single point, @ 10 μM compound, Table 5

T1 sequence (P31424 21-1203): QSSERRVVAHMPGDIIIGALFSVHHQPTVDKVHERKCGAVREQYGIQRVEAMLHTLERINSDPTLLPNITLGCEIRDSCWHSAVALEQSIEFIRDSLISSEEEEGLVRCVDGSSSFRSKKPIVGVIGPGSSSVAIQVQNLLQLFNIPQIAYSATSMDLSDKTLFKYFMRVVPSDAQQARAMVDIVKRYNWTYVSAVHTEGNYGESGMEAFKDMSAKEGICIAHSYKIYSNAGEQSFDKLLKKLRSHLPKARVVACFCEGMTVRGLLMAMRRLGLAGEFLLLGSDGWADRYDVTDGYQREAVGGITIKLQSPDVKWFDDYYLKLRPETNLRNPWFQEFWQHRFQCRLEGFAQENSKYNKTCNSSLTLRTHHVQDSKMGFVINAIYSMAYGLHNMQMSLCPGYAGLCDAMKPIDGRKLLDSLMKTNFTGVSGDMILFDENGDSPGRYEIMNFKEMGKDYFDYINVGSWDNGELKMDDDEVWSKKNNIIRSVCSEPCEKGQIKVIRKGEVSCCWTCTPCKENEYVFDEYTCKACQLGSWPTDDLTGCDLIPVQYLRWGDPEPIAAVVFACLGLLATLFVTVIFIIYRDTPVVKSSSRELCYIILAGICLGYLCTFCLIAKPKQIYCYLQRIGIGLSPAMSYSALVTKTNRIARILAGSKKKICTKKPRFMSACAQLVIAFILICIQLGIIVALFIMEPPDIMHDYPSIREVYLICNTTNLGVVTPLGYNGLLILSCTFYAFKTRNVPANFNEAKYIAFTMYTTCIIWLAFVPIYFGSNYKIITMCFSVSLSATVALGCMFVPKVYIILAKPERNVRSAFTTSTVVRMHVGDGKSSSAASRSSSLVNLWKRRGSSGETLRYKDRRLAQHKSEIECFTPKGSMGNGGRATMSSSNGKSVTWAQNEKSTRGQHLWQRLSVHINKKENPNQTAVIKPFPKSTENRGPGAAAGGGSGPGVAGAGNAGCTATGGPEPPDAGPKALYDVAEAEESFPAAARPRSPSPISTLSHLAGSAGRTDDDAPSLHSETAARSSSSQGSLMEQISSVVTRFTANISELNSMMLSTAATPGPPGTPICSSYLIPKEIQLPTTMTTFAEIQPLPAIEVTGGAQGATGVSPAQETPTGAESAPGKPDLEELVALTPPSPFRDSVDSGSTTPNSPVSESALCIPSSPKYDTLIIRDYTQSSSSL

SMILES | inhibition at 10 µM [1] [%] | inhibition at 10 µM [2] [%] | other results
N#Cc1cccnc1N1CCN(C(=O)c2cncc(C#Cc3ccccc3)c2)CC1 [Compound 135, 2-(4-{[5-(phenylethynyl)pyridin-3-yl]carbonyl}piperazin-1-yl)nicotinonitrile] | 28 |  | 
Cc1cc(C)nc(N2CCN(C(=O)c3cncc(C#Cc4ccccc4)c3)CC2)n1 [Compound 136, 4,6-dimethyl-2-(4-{[5-(phenylethynyl)pyridin-3-yl]carbonyl}piperazin-1-yl)pyrimidine] | 0 |  | 
O=C(c1cncc(C#Cc2ccccc2)c1)N1CCN(c2cnccn2)CC1 [Compound 137, 2-(4-{[5-(phenylethynyl)pyridin-3-yl]carbonyl}piperazin-1-yl)pyrazine] | 32 |  | 
O=C(c1cncc(C#Cc2ccccc2)c1)N1CCN(c2ccncc2)CC1 [Compound 138, 1-{[5-(phenylethynyl)pyridin-3-yl]carbonyl}-4-pyridin-4-ylpiperazine] | 0 |  | 
N#Cc1cccnc1N1CCN(C(=O)c2ccnc(C#Cc3ccccc3)c2)CC1 [Compound 139, 2-{4-[2-(phenylethynyl)isonicotinoyl]piperazin-1-yl}nicotinonitrile] | 40 |  | 
Cc1cc(C)nc(N2CCN(C(=O)c3ccnc(C#Cc4ccccc4)c3)CC2)n1 [Compound 140, 4,6-dimethyl-2-{4-[2-(phenylethynyl)isonicotinoyl]piperazin-1-yl}pyrimidine] | 37 |  | 
N#Cc1cccnc1N1CCN(C(=O)c2cccc(C#Cc3ccccc3)c2)CC1 [Compound 141, 2-{4-[3-(phenylethynyl)benzoyl]piperazin-1-yl}nicotinonitrile] | 78 |  | Ki (Biological Activity, Table 2A): 1090 nM
O=C(c1cccc(C#Cc2ccccc2)c1)N1CCN(c2ccncc2)CC1 [Compound 142, 1-[3-(phenylethynyl)benzoyl]-4-pyridin-4-ylpiperazine] | 53 |  | 
Cc1cccc(N2CCN(C(=O)c3cncc(C#Cc4ccccc4)c3)CC2)n1 [Compound 143, 1-(6-methylpyridin-2-yl)-4-{(5-(phenylethynyl)pyridin-3-yl]carbonyl}piperazine] | 49 |  | 
O=C(c1ccnc(C#Cc2ccccc2)c1)N1CCN(c2ccncc2)CC1 [Compound 144, 1-[2-(phenylethynyl)isonicotinoyl]-4-pyridin-4-ylpiperazine] | 10 |  | 
COc1ccc(C(=O)N2CCN(c3ccncc3)CC2)cc1C#Cc1ccccc1 [Compound 145, 1-[4-methoxy-3-(phenylethynyl)benzoyl]-4-pyridin-4-ylpiperazine] | 91 |  | Ki (Biological Activity, Table 2A): 1300 nM
O=C(c1cccc(C#Cc2ccccn2)c1)N1CCN(c2ncccc2C(F)(F)F)CC1 [Compound 146, 1-[3-(pyridin-2-ylethynyl)benzoyl]-4-[3-(trifluoromethyl)pyridin-2-yl]piperzine] |  |  | PCT INHIB (%) @ 10 μM [1]: 48%
Cc1cccc(N2CCN(C(=O)c3cccc(C#Cc4ccccn4)c3)CC2)n1 [Compound 147, 1-(6-methylpyridin-2-yl)-4-[3-(pyridin-2-ylethynyl)benzoyl]piperazine] | 80 |  | Ki (Biological Activity, Table 2A): 3020 nM
N#Cc1cccnc1N1CCN(C(=O)c2cccc(C#Cc3ccccn3)c2)CC1 [Compound 148] | 74 |  | Ki (Biological Activity, Table 2A): 1630 nM
O=C(c1cccc(C#Cc2ccccn2)c1)N1CCN(c2ncc(C(F)(F)F)cc2Cl)CC1 [Compound 149, 1-[3-chloro-5-(trifluoromethyl)pyridin-2-yl]-4-[3-(pyridin-2-ylethynyl)benzoyl]piperazine] | 72 |  | Ki (Biological Activity, Table 2A): 2760 nM
Cc1cccc(COc2cccc(C(=O)N3CCN(c4ccccn4)CC3)c2)c1 [Compound 150, 1-{3-[(3-methylbenzyl)oxy]benzoyl}-4-pyridin-2-ylpiperazine] |  | 0 | 
COc1ccc(C(=O)N2CCN(c3ccccn3)CC2)cc1OCc1cccc(C)c1 [Compound 151, 1-{4-methoxy-3-[(3-methylbenzyl)oxy]benzoyl}-4-pyridin-2-ylpiperazine] |  | 0 | 
O=C(c1cccc(OCc2ccccc2)c1)N1CCN(c2ccccn2)CC1 [Compound 152, 1-[3-(benzyloxy)benzoyl]-4-pyridin-2-ylpiperazine] |  | 0 | 
O=C(c1cccc(OCc2cccc(Br)c2)c1)N1CCN(c2ccccn2)CC1 [Compound 153, 1-{3-[(3-bromobenzyl)oxy]benzoyl}-4-pyridin-2-ylpiperazine] |  | 23 | 
O=C(c1cccc(OCc2cccc(Cl)c2)c1)N1CCN(c2ccccn2)CC1 [Compound 154, 1-{3-[(3-chlorobenzyl)oxy]benzoyl}-4-pyridin-2-ylpiperazine] |  | 36 | 
COc1cccc(COc2cccc(C(=O)N3CCN(c4ccccn4)CC3)c2)c1 [Compound 155, 1-{3-[(3-methoxybenzyl)oxy]benzoyl}-4-pyridin-2-ylpiperazine] |  | 0 | 

SMILES | inhibition at 10 µM [1] [%] | inhibition at 10 µM [2] [%] | other results
N#Cc1cccc(COc2cccc(C(=O)N3CCN(c4ccccn4)CC3)c2)c1 [Compound 156, 3-({3-[(4-pyridin-2-ylpiperazin-1-yl)carbonyl]phenoxy}methyl)benzonitrile] |  | 0 | 
O=C(c1cccc(OCc2cccc(F)c2)c1)N1CCN(c2ccccn2)CC1 [Compound 157, 1-{3-[(3-fluorobenzyl)oxy]benzoyl}-4-pyridin-2-ylpiperazine] |  | 18 | 
COc1ccc(C(=O)N2CCN(c3ccccn3)CC2)cc1OCc1ccccc1 [Compound 158, 1-[3-(benzyloxy)-4-methoxybenzoyl]-4-pyridin-2-ylpiperazine] |  | 0 | 
COc1ccc(C(=O)N2CCN(c3ccccn3)CC2)cc1OCc1cccc(Br)c1 [Compound 159, 1-{3-[(3-bromobenzyl)oxy]-4-methoxybenzoyl}-4-pyridin-2-ylpiperazine] |  | 26 | 
COc1ccc(C(=O)N2CCN(c3ccccn3)CC2)cc1OCc1cccc(Cl)c1 [Compound 160, 1-{3-[(3-chlorobenzyl)oxy]-4-methoxybenzoyl}-4-pyridin-2-ylpiperazine] |  | 11 | 
COc1cccc(COc2cc(C(=O)N3CCN(c4ccccn4)CC3)ccc2OC)c1 [Compound 161, 1-{4-methoxy-3-[(3-methoxybenzyl)oxy]benzoyl}-4-pyridin-2-ylpiperazine] |  | 0 | 
COc1ccc(C(=O)N2CCN(c3ccccn3)CC2)cc1OCc1cccc(C#N)c1 [Compound 162, 3-({2-methoxy-5-[(4-pyridin-2-ylpiperazin-1-yl)carbonyl]phenoxy}methyl)benzonitrile] |  | 0 | 
COc1ccc(C(=O)N2CCN(c3ccccn3)CC2)cc1OCc1cccc(F)c1 [Compound 163, 1-{3-[(3-fluorobenzyl)oxy]-4-methoxybenzoyl}-4-pyridin-2-ylpiperazine] |  | 11 | 
Cc1cccc(OCc2cccc(C(=O)N3CCN(c4ccccn4)CC3)c2)c1 [Compound 164, 1-{3-[(3-methylphenoxy)methyl]benzoyl}-4-pyridin-2-ylpiperazine] |  |  | Ki ([3H]-MPEP 4 nM, Table 4A): 1750 nM
N#Cc1cccc(OCc2cccc(C(=O)N3CCN(c4ccccn4)CC3)c2)c1 [Compound 165, 3-({3-[(4-pyridin-2-ylpiperazin-1-yl)carbonyl]benzyl}oxy)benzonitrile] |  |  | Ki ([3H]-MPEP 4 nM, Table 4A): 2970 nM
CCc1cccc(OCc2cccc(C(=O)N3CCN(c4ccccn4)CC3)c2)c1 [Compound 166, 1-{3-[(3-ethylphenoxy)methyl]benzoyl}-4-pyridin-2-ylpiperazine] |  |  | Ki ([3H]-MPEP 4 nM, Table 4A): > 10000 nM
COc1cccc(OCc2cccc(C(=O)N3CCN(c4ccccn4)CC3)c2)c1 [Compound 167, 1-{3-[(3-methoxyphenoxy)methyl]benzoyl}-4-pyridin-2-ylpiperazine] |  |  | Ki ([3H]-MPEP 4 nM, Table 4A): > 10000 nM
O=C(c1cccc(COc2cccc(Cl)c2)c1)N1CCN(c2ccccn2)CC1 [Compound 168, 1-{3-[(3-chlorophenoxy)methyl]benzoyl}-4-pyridin-2-ylpiperazine] |  |  | Ki ([3H]-MPEP 4 nM, Table 4A): 813 nM
O=C(c1cccc(COc2cccc(Br)c2)c1)N1CCN(c2ccccn2)CC1 [Compound 169, 1-{3-[(3-bromophenoxy)methyl]benzoyl}-4-pyridin-2-ylpiperazine] |  |  | Ki ([3H]-MPEP 4 nM, Table 4A): 862 nM
O=C(c1cccc(COc2ccccn2)c1)N1CCN(c2ccccn2)CC1 [Compound 170, 1-pyridin-2-yl-4-{3-[(pyridin-2-yloxy)methyl]benzoyl}piperazine] |  |  | Ki ([3H]-MPEP 4 nM, Table 4A): > 10000 nM
O=C(c1cccc(COc2ccccc2)c1)N1CCN(c2ccccn2)CC1 [Compound 171, 1-[3-(phenoxymethyl)benzoyl]-4-pyridin-2-ylpiperazine] |  |  | Ki ([3H]-MPEP 4 nM, Table 4A): > 10000 nM
O=S(=O)(c1cccc(C#Cc2cccc(O)c2)c1)N1CCN(c2ccccn2)CC1 [Compound 172, 3-({3-[(4-pyridin-2-ylpiperazin-1-yl)sulfonyl]phenyl}ethynyl)phenol] |  |  | inhibition at 10 µM [3]: 0%
O=S(=O)(c1cccc(C#CC2=CCCCC2)c1)N1CCN(c2ccccn2)CC1 [Compound 173, 1-{[3-(cyclohex-1-en-1-ylethynyl)phenyl]sulfonyl}-4-pyridin-2-ylpiperazine] |  |  | inhibition at 10 µM [3]: 0%
O=S(=O)(c1cccc(C#CCc2ccccc2)c1)N1CCN(c2ccccn2)CC1 [Compound 174, 1-{[3-(3-phenylprop-1-yn-1-yl)phenyl]sulfonyl}-4-pyridin-2-ylpiperazine] |  |  | inhibition at 10 µM [3]: 0%
COc1cccc(C#Cc2cccc(S(=O)(=O)N3CCN(c4ccccn4)CC3)c2)c1 [Compound 175, 1-({3-[(3-methoxyphenyl)ethynyl]phenyl}sulfonyl)-4-pyridin-2-ylpiperazine] |  |  | inhibition at 10 µM [3]: 0%
O=S(=O)(c1cccc(C#Cc2ccccc2)c1)N1CCN(c2ccccn2)CC1 [Compound 176, 1-{[3-(phenylethynyl)phenyl]sulfonyl}-4-pyridin-2-ylpiperazine] |  |  | inhibition at 10 µM [3]: 0%
